In assay [1] the target is T1, KRAS-WT and SOS1 proteins (Homo sapiens, UniProt Q07889).
T1 construct: purchased Cisbio 63ADK000CB15PEG
T1 sequence (Q07889 1-1333): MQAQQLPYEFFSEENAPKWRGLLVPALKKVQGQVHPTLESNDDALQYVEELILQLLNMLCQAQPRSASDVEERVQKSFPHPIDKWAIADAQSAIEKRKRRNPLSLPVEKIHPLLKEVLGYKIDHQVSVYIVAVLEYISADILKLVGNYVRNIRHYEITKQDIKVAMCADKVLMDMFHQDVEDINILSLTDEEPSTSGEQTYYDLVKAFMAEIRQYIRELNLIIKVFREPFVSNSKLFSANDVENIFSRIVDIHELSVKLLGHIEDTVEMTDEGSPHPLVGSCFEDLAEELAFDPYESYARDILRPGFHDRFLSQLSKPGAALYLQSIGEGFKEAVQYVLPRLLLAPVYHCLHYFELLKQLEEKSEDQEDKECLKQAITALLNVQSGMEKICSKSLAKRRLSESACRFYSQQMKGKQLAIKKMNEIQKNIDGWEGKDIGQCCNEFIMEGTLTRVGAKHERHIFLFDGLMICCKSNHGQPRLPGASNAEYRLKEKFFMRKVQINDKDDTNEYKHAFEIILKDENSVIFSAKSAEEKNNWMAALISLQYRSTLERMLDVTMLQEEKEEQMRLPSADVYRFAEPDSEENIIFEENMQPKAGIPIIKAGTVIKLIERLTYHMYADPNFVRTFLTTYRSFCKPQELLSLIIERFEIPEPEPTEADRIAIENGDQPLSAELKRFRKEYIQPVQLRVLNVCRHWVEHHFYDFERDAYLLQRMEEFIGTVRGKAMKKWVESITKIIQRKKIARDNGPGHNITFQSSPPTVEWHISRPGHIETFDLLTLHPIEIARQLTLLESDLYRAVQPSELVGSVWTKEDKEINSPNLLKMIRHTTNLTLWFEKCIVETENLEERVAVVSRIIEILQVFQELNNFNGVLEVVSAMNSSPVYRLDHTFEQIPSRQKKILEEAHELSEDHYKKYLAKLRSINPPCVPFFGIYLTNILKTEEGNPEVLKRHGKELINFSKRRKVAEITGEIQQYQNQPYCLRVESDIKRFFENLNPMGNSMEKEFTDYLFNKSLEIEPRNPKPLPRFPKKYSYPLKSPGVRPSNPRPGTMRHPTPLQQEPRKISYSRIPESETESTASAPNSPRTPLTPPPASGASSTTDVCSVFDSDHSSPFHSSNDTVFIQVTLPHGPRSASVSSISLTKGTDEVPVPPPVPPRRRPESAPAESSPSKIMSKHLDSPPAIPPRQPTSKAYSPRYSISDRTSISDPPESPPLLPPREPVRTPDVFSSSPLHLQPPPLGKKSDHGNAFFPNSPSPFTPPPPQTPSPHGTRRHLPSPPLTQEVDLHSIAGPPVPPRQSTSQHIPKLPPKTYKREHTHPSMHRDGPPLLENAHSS
Kind of assay: KRAS-WT/SOS1 binding assay (HTRF). The note with it: Tag1-SOS1 / Tag2-KRAS-WT, 10 μM GTP, read-out: Activity Data in Kras: SOS1 Assay, Wild Type. How it is done:
(§1) KRAS-WT (or G12C/G12D/G12V)/SOS1 Binding Assay
(§2) Low IC50 values are indicative of high potency of the SOS1 inhibitor compounds in this assay setting.
(§3) The KRAS-WT (or G12C/G12D/G12V)/SOS1 binding assay is performed using an assay kit (Cisbio, Cat #63ADK000CB15PEG or 63ADK000CB16PEG/63ADK000CB17PEG/63ADK000CB18PEG) according to the procedure recommended by the manufacturer. • 1) Thaw and prepare the working solution of Tag1-SOS1 protein and Tag2-KRAS-WT (or G12C/G12D/G12V) protein with final concentration of 10 μM GTP (Sigma, Cat #V900868). • 2) Thaw and prepare the working solution of anti-Tag1-Tb^3+ anti-Tag2-XL665. • 3) Dispense 2 μL of serially diluted compound, 4 μL of Tag1-SOS1 protein and 4 μL of Tag2-KRAS-WT (or G12C/G12D/G12V) protein with GTP into a ProxiPlate-384 Plus, white 384-shallow well microplate (PerkinElmer, Cat #6008280). • 4) Incubate the plate for 15 minutes at room temperature. • 5) Dispense 10 μL of pre-mixed anti-Tag1-Tb^3+ and anti-Tag2-XL665 into the plate. • 6) Seal the plate and incubate for 2 hours at room temperature. • 7) Remove the plate sealer and read on PHERAstar FS (BMG LABTECH, PHERAstar FS). • 8) Calculate the ratio of the acceptor and donor emission signals for each individual well using the following equation.
(§4) [formula] • 9) IC50 values are fitted and calculated by HTRF signal values and log of compound concentrations to nonlinear regression [Log (inhibitor) vs. Response−Variable Slope (four parameters)] using the GraphPad Prism 8.0.
For orientation: Time-resolved FRET reads energy transfer from a long-lived donor to a nearby acceptor.

Assay [2] has as its target T2, KRAS G12D and SOS1 proteins (Homo sapiens, UniProt Q07889).
T2 construct: purchased Cisbio 63ADK000CB17PEG
T2 sequence (Q07889 1-1333): T1 sequence (Q07889 1-1333)
Kind of assay: KRAS-G12D/SOS1 binding assay (HTRF). Particulars: Tag1-SOS1 / Tag2-KRAS G12D, 10 μM GTP. How it is done:
as §1, §2, §3, §4

SMILES strings stand for the structures. Where only a bound is given, the exact number is not on record here.

With `Cc1nc(N[C@H](C)c2cccc(C(F)(F)CO)c2)c2cc([C@H]3CC[C@H](O)CC3)c3nncn3c2n1` [Example 16, Trans-(R)-4-(4-((1-(3-(1,1-difluoro-2-hydroxyethyl)phenyl)ethyl)amino)-2-methyl-[1,2,4]triazolo[4′,3′:1,6]pyrido[2,3-d]pyrimidin-6-yl)cyclohexan-1-ol], the IC50 in assay [1] and in assay [2] was under 0.1 µM throughout.
Regarding `C[C@@H](Nc1nc2ccnn2c2cc(=O)n(C3CCNCC3)cc12)c1cccc(C(F)(F)CO)c1` [Example 77, 8-{[(1R)-1-[3-(1,1-difluoro-2-hydroxyethyl)phenyl]ethyl]amino}-11-(piperidin-4-yl)-2,3,7,11-tetraazatricyclo[7.4.0.0^{2,6}]trideca-1(13),3,5,7,9-pentaen-12-one], the IC50 in assay [1] and in assay [2] was under 0.1 µM in each case.
For the molecule `Cc1nc(N[C@H](C)c2cccc(C(F)(F)CO)c2)c2cc(-c3ccc(=O)n(C)c3)c3[nH]ncc3c2n1` [Example 27, (R)-5-(4-((1-(3-(1,1-difluoro-2-hydroxyethyl)phenyl)ethyl)amino)-2-methyl-7H-pyrazolo[3,4-h]quinazolin-6-yl)-1-methylpyridin-2(1H)-one], the IC50 in assay [1] and in assay [2] was under 0.1 µM each time.
Consider `Cc1nc(N[C@H](C)c2cccc3c2CCC3(F)F)c2cc(N3CCOCC3)c3nncn3c2n1` [Example 23, N-[(1R)-1-(1,1-difluoro-2,3-dihydro-1H-inden-4-yl)ethyl]-12-methyl-7-(morpholin-4-yl)-2,4,5,11,13-pentaazatricyclo[7.4.0.0^{2,6}]trideca-1(9),3,5,7,10,12-hexaen-10-amine], for which the IC50 in assay [1] and in assay [2] was under 0.1 µM each time.
Turning to `COc1cc2c(cc1O[C@H]1CCOC1)c(N[C@H](C)c1cccc(C(F)(F)F)c1)nc1cncn12` [Example 56, 8-methoxy-7-(((S)-tetrahydrofuran-3-yl)oxy)-N—((R)-1-(3-(trifluoromethyl)phenyl)ethyl)imidazo[1,5-a]quinazolin-5-amine], the IC50 in assay [1] and in assay [2] was 0.5 to 5 µM in each case.
In the case of `C[C@@H](Nc1nc2ccnn2c2cc(=O)n(C3(C)CC3)cc12)c1cccc(C(F)(F)F)n1` [Example 65, (R)-7-(1-methylcyclopropyl)-5-((1-(6-(trifluoromethyl)pyridin-2-yl)ethyl)amino)pyrazolo[1,5-a]pyrido[3,4-e]pyrimidin-8(7H)-one], the IC50 in assay [1] and in assay [2] was 0.5 to 5 µM throughout.
As to `Cc1nc(N[C@H](C)c2cccc(C(F)(F)CO)c2)c2cc(N3CCC(O)C3)c3c(cnn3C)c2n1` (stereo partly drawn) [Example 42, 1-(4-{[(1R)-1-[3-(1,1-difluoro-2-hydroxyethyl)phenyl]ethyl]amino}-2,7-dimethyl-7H-pyrazolo[3,4-h]quinazolin-6-y)pyrrolidin-3-ol], the IC50 in assay [1] and in assay [2] was under 0.1 µM throughout.
With `C[C@@H](Nc1nc2ccnn2c2cc(=O)n([C@H]3CCOC3)cc12)c1cccc2c1CCC2(F)F` [Example 71, 5-(((R)-1-(1,1-difluoro-2,3-dihydro-1H-inden-4-yl)ethyl)amino)-7-((S)-tetrahydrofuran-3-yl)pyrazolo[1,5-a]pyrido[3,4-e]pyrimidin-8(7H)-one], the IC50 in assay [1] and in assay [2] was under 0.1 µM throughout.
As for `Cc1nc(N[C@H](C)c2cccc(C(F)(F)F)c2)c2cc(O[C@H]3CCOC3)c3nncn3c2n1` [Example 17, 12-methyl-7-(oxolan-3-yloxy)-N-[(1R)-1-[3-(trifluoromethyl)phenyl]ethyl]-2,4,5,11,13-pentaazatricyclo[7.4.0.0^{2,6}]trideca-1(9),3,5,7,10,12-hexaen-10-amine], the IC50 in assay [1] and in assay [2] was 0.1 to 0.5 µM each time.
As to `Cc1nc(N[C@H](C)c2cccc(C(F)(F)CO)c2)c2cc(OC3CC(F)(F)C3)c3c(cnn3C)c2n1` [Example 39, (R)-2-(3-(1-((6-(3,3-difluorocyclobutoxy)-2,7-dimethyl-7H-pyrazolo[3,4-h]quinazolin-4-yl)amino)ethyl)phenyl)-2,2-difluoroethan-1-ol], the IC50 in assay [1] and in assay [2] was 0.1 to 0.5 µM in each case.
Take `Cc1nc(N[C@H](C)c2cccc(C(F)(F)CO)c2)c2cc(-c3ccc(=O)n(C)c3)c3nn(C(F)(F)F)cc3c2n1` [Example 34, 5-(4-{[(1R)-1-[3-(1,1-difluoro-2-hydroxyethyl)phenyl]ethyl]amino}-2-methyl-8-(trifluoromethyl)-8H-pyrazolo[3,4-h]quinazolin-6-yl)-1-methyl-1,2-dihydropyridin-2-one]: the IC50 in assay [1] and in assay [2] was 0.1 to 0.5 µM throughout.
For the molecule `COc1cc2c(cc1O[C@H]1CCOC1)c(N[C@H](C)c1cc(N)cc(C(F)(F)F)c1)nc1cncn12` [Example 57, N—((R)-1-(3-amino-5-(trifluoromethyl)phenyl)ethyl)-8-methoxy-7-(((S)-tetrahydrofuran-3-yl)oxy)imidazo[1,5-a]quinazolin-5-amine], the IC50 in assay [1] and in assay [2] was 0.1 to 0.5 µM each time.
As to `C[C@@H](Nc1nc2ccnn2c2cc(=O)n(C3CCN(S(C)(=O)=O)CC3)cc12)c1cccc(C(F)(F)CO)c1` [Example 67, (R)-5-((1-(3-(1,1-difluoro-2-hydroxyethyl)phenyl)ethyl)amino)-7-(1-(methylsulfonyl)piperidin-4-yl)pyrazolo[1,5-a]pyrido[3,4-e]pyrimidin-8(7H)-one], the figures for the IC50 in assay [1] and in assay [2] were under 0.1 µM and 0.1 to 0.5 µM, respectively.
As for `Cc1nc(N[C@H](C)c2cccc(C(F)(F)CO)c2)c2cc(C3CCNCC3)c3nncn3c2n1` [Example 14, (R)-2,2-difluoro-2-(3-(1-((2-methyl-6-(piperidin-4-yl)-[1,2,4]triazolo[4′,3′:1,6]pyrido[2,3-d]pyrimidin-4-yl)amino)ethyl)phenyl)ethan-1-ol], the IC50 in assay [1] and in assay [2] was under 0.1 µM each time.
As to `COCC(=O)N1CCC(c2cc3c(N[C@H](C)c4cccc(C(F)(F)CO)c4)nc(C)nc3n3cnnc23)CC1` [Example 11, (R)-1-(4-(4-((1-(3-(1,1-difluoro-2-hydroxyethyl)phenyl)ethyl)amino)-2-methyl-[1,2,4]triazolo[4′,3′:1,6]pyrido[2,3-d]pyrimidin-6-yl)piperidin-1-yl)-2-methoxyethan-1-one], the IC50 in assay [1] and in assay [2] was under 0.1 µM throughout.
Regarding `Cc1nc(N[C@H](C)c2cccc(C(F)(F)CO)c2)c2cc([C@H]3CC[C@@H](O)CC3)c3nncn3c2n1` [Example 15, Cis-(R)-4-(4-((1-(3-(1,1-difluoro-2-hydroxyethyl)phenyl)ethyl)amino)-2-methyl-[1,2,4]triazolo[4′,3′:1,6]pyrido[2,3-d]pyrimidin-6-yl)cyclohexan-1-ol], the IC50 in assay [1] and in assay [2] was under 0.1 µM in each case.

The values are drawn from patent US20240109891A1, “NOVEL SUBSTITUTED TRICYCLIC AZA-HETEROCYCLES AS SOS1 INHIBITORS” (Viva Star Biosciences (Suzhou) Co., Ltd., priority 2021, published 2024).
